Source: patent publication US7019123B2, “Human bikunin” (Bayer Corporation, priority 1996, dated 2006)

Columns and labels:
Bovine chymotrypsin = Bovine chymotrypsin (Bos taurus, UniProt P00766); experiment: Inhibition of chymotrypsin, AAPF-pNA substrate; type: biochemical; settings: Chymotrypsin (5 nM), AAPF-pNA 0.08 mM
Factor XIIa = biological target: T1, Factor XIIa (Homo sapiens, UniProt P00748); experiment: Inhibition of Factor XIIa, PFR-AMC substrate; type: biochemical
T1 sequence (P00748 373-615 limits assumed): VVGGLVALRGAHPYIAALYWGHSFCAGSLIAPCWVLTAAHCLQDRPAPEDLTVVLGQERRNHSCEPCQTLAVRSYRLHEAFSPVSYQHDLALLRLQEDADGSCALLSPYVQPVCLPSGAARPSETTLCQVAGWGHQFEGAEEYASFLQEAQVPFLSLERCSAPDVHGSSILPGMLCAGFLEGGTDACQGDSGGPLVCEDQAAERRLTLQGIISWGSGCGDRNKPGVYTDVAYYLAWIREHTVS

Question: What does the source list for `CC[C@H](C)[C@H](N)C(=O)N[C@@H](Cc1c[nH]cn1)C(=O)N[C@@H](CC(=O)O)C(=O)N[C@@H](Cc1ccccc1)C(=O)N[C@H]1CSSC[C@@H](C(=O)N[C@@H](C)C(=O)N[C@H](C(=O)N[C@H](C(=O)O)C(C)C)[C@@H](C)O)NC(=O)[C@H](CCCCN)NC(=O)[C@H](CCCCN)NC(=O)[C@H](CC(C)C)NC(=O)[C@@H]2CSSC[C@@H]3NC(=O)[C@H](CO)NC(=O)CNC(=O)[C@H](CC(=O)O)NC(=O)[C@H]([C@@H](C)O)NC(=O)[C@H](C(C)C)NC(=O)[C@H](CC(N)=O)NC(=O)[C@H](Cc4ccc(O)cc4)NC(=O)[C@H](Cc4c[nH]c5ccccc45)NC(=O)[C@H](Cc4c[nH]c5ccccc45)NC(=O)[C@H](CCCNC(=N)N)NC(=O)[C@@H]4CCCN4C(=O)[C@H](CCSC)NC(=O)[C@H](CO)NC(=O)[C@H](C)NC(=O)[C@H](CCCNC(=N)N)NC(=O)[C@H](CSSC[C@H](NC(=O)CNC(=O)CNC(=O)[C@H](Cc4ccc(O)cc4)NC(=O)[C@H](C(C)C)NC(=O)[C@H](Cc4ccccc4)NC(=O)[C@H](CC(C)C)NC(=O)[C@H](CCC(N)=O)NC3=O)C(=O)N[C@@H](CC(=O)O)C(=O)NCC(=O)N[C@@H](CC(N)=O)C(=O)N[C@@H](CO)C(=O)N[C@@H](CC(N)=O)C(=O)N[C@@H](CC(N)=O)C(=O)N[C@@H](Cc3ccc(O)cc3)C(=O)N[C@@H](CC(C)C)C(=O)N[C@@H]([C@@H](C)O)C(=O)N[C@@H](CCCCN)C(=O)N[C@@H](CCC(=O)O)C(=O)N[C@@H](CCC(=O)O)C(=O)N2)NC(=O)[C@H](CCCNC(=N)N)NC(=O)CNC(=O)[C@H](C(C)C)NC(=O)[C@H](C(C)C)NC(=O)[C@H](CCCCN)NC(=O)[C@H](CO)NC(=O)[C@H](C(C)C)NC(=O)[C@H](CC(C)C)NC1=O` [bikunin (7–64)]?
Answer: Ki (Bovine chymotrypsin): 0.6 nM; Ki (Factor XIIa): > 300 nM
